Reference: US11166460B2, “α-amino acrylate microbicide, and preparation method therefor and uses thereof” (priority 2017, dated 2021)
In brackets after ≈: the same amount, converted by molar mass. Read-outs that look alike come from different tables or passages of the source.

What was measured:
Physalospora piricola = test: Fungicidal activity, fungi growth rate method, PP; type: cell-based; conditions: 50 μg/mL
Botrytis cinerea = test: Fungicidal activity, fungi growth rate method, BC; type: cell-based; conditions: Botrytis cinerea, 50 μg/mL
[1] = tested on: tobacco mosaic virus (TMV); test: Anti-TMV inactivation activity (inactivation mode), compound mixed with TMV before inoculation of tobacco leaves; type: in vivo; conditions: Tobacco mosaic virus, read-out: Anti-TMV activity, Inactivation effect (inhibition)
Rhizoctonia cerealis = test: Fungicidal activity, fungi growth rate method, RC; type: cell-based; conditions: Ceratobasidium cereale, 50 μg/mL
[2] = tested on: tobacco mosaic virus (TMV); test: Anti-TMV inducing activity (induction mode), tobacco seedlings; type: in vivo; conditions: Tobacco mosaic virus, read-out: Anti-TMV activity, Induction effect (inhibition), 100 μg/mL, tobacco seedlings
[3] = tested on: tobacco mosaic virus (TMV); test: Anti-TMV curative activity (treatment mode), live friction inoculation on tobacco seedlings; type: in vivo; conditions: Tobacco mosaic virus, read-out: Anti-TMV activity, Curative effect (inhibition), 100 μg/mL, tobacco seedlings, checked on seventh day
Sclerotinia sclerotiorum = test: microbe, parasite or virus in culture; type: cell-based; conditions: Sclerotinia sclerotiorum; for inhibition at 50 µg/mL: 50 μg/mL; for EC90: read-out: EC90 against S. sclerotiorum in vitro
wheat Gibberella zeae = test: microbe, parasite or virus in culture; type: cell-based; conditions: Fusarium graminearum
[4] = tested on: tobacco mosaic virus (TMV); test: Anti-TMV protective activity (protection mode), live friction inoculation on tobacco seedlings; type: in vivo; conditions: Tobacco mosaic virus, read-out: Anti-TMV activity, Protection effect (inhibition)
Alternaria solani = test: Fungicidal activity, fungi growth rate method, AS; type: cell-based; conditions: Alternaria solani, 50 μg/mL
Cercospora arachidicola = test: Fungicidal activity, fungi growth rate method, CA; type: cell-based; conditions: Mycosphaerella arachidis, 50 μg/mL
[5] = tested on: Phytophthora infestans (Mont) de Bary; test: microbe, parasite or virus in culture; type: cell-based; conditions: Phytophthora infestans
Pellicularia sasakii = test: Fungicidal activity, fungi growth rate method, PS; type: cell-based; conditions: 50 μg/mL
[6] = read-out: Fungicidal activity, inhibition, PP
[7] = read-out: Fungicidal activity, inhibition, BC
[8] = read-out: Fungicidal activity, inhibition, RC
[9] = read-out: Fungicidal activity, inhibition, SS
[10] = read-out: Fungicidal activity, inhibition, GZ
[11] = read-out: Fungicidal activity, inhibition, AS
[12] = read-out: Fungicidal activity, inhibition, CA
[13] = read-out: Fungicidal activity, inhibition, PI
[14] = read-out: Fungicidal activity, inhibition, PS
[15] = read-out: Fungicidal activity (inhibition) against SS: Sclerotinia sclerotiorum
[16] = read-out: Fungicidal activity (inhibition) against RC: Rhizoctonia cerealis
[17] = read-out: Fungicidal activity (inhibition) against PI: Phytophthora infestans (Mont) de Bary
[18] = read-out: Fungicidal activity (inhibition) against PP: Physalospora piricola
[19] = read-out: Fungicidal activity (inhibition) against BC: Botrytis cinerea
[20] = read-out: Fungicidal activity (inhibition) against CA: Cercospora arachidicola
[21] = read-out: Fungicidal activity (inhibition) against PS: Pellicularia sasakii
[22] = read-out: Fungicidal activity (inhibition) against GZ: wheat Gibberella zeae

| Structure (SMILES) | inhibition at 50 µg/mL (Physalospora piricola; [6]) [%] | inhibition at 50 µg/mL (Botrytis cinerea; [7]) [%] | inhibition at 100 µg/mL [1] [%] | inhibition at 50 µg/mL (Rhizoctonia cerealis; [8]) [%] | melting point [°C] | inhibition at 100 µg/mL [2] [%] | inhibition at 100 µg/mL [3] [%] | inhibition at 50 µg/mL (Sclerotinia sclerotiorum; [9]) [%] | inhibition at 50 µg/mL (wheat Gibberella zeae; [10]) [%] | inhibition at 100 µg/mL [4] [%] | inhibition at 50 µg/mL (Alternaria solani; [11]) [%] | inhibition at 50 µg/mL (Cercospora arachidicola; [12]) [%] | inhibition at 50 µg/mL [5, 13] [%] | inhibition at 50 µg/mL (Pellicularia sasakii; [14]) [%] | inhibition at 50 µg/mL (Sclerotinia sclerotiorum; [15]) [%] | inhibition at 50 µg/mL [5, 17] [%] | other results |
| --- | --- | --- | --- | --- | --- | --- | --- | --- | --- | --- | --- | --- | --- | --- | --- | --- | --- |
| COC(=O)[C@H]1CCCN1C(=O)/C(=C/c1ccccc1)NC(=O)c1ccccc1 [Compound 37, (R,Z)-N-[1-[(2-methylpyrrolidinecarboxylate)]carbonyl-2-phenylethenyl]benzamide] | 0 | 21 | 0 | 13 | 155 to 157 | 40 | 25 | 56 | 23 | 2 | 17 | 13 | 5 | 6 |  |  |  |
| O=C(O)/C(=C/c1ccccc1)NC(=O)c1ccc(C(F)(F)F)cc1 [Compound 68, (Z)-2-[4-(trifluoromethyl)benzoylamino]-3-phenylpropenoic acid] | 7 | 20 | 3 | 9 | 184 to 186 | 34 | 0 | 73 | 17 | 37 | 13 | 12 | 18 | 13 | 60 to 80 |  |  |
| CC(C)(C)OC(=O)N1CCC(c2nc(/C=C(\NC(=O)c3ccccc3)C(=O)NCC(F)F)cs2)CC1 [Compound 43, (Z)-N-[1-[(2,2-difluoroethylamino)carbonyl]-2-[4-[2-[4-(1-Boc-piperidine)]thiazol]]ethenyl]benzamide] | 40 | 40 | 27 | 38 | 164 to 165 | 31 | 30 | 96 | 36 | 2 | 43 | 32 | 38 | 39 |  | 38 | inhibition at 50 µg/mL (Rhizoctonia cerealis; [16]): 38%; EC90 (Sclerotinia sclerotiorum): 154 µg/mL (≈ 295 µM) |
| CC(C)(C)OC(=O)N1CCC(c2nc(/C=C(\NC(=O)c3ccccc3)C(=O)NCc3ccc(Br)cc3)cs2)CC1 [Compound 47, N-[(1Z)-2-[4-[2-[4-(1-Boc-piperidine)]thiazol]]-1-[[(4-bromophenylmethyl)amino]carbonyl]ethenyl]benzamide] | 22 | 32 | 0 | 21 | 101 to 103 | 53 | 56 | 82 | 22 | 41 | 36 | 22 | 20 | 19 | 80 to 95 |  |  |
| COC(=O)[C@H](C)NC(=O)/C(=C/c1ccccc1)NC(=O)c1ccccc1 [Compound 34, (S,Z)-N-[1-[[1-(2-methyl propanoate)amino]carbonyl]-2-phenylethenyl]benzamide] | 0 | 24 | 0 | 3 | 147 to 148 | 50 | 0 | 56 | 16 | 0 | 21 | 16 | 5 | 0 |  |  |  |
| O=C(N/C(=C\c1ccccc1)C(=O)N1CCC(O)(c2ccc(Br)cc2)CC1)c1ccc(F)cc1 [Compound 6, (Z)-N-[1-[[4-(4-bromophenyl)-4-hydroxy-1-piperidinyl]carbonyl]-2-phenylethenyl]-4-fluorobenzamide] | 49 | 48 | 50 | 51 | 129 to 130 | 6 | 15 | 96 | 44 | 45 | 31 | 49 | 50 | 54 |  | 50 | inhibition at 50 µg/mL (Physalospora piricola; [18]): 49%; inhibition at 50 µg/mL (Botrytis cinerea; [19]): 48%; EC90 (Sclerotinia sclerotiorum): 218 µg/mL (≈ 416 µM); inhibition at 50 µg/mL (Cercospora arachidicola; [20]): 49%; inhibition at 50 µg/mL (Pellicularia sasakii; [21]): 54% |
| COc1ccc(C(=O)N/C(=C\c2ccccc2)C(=O)N2CCC(O)(c3ccc(Br)cc3)CC2)cc1 [Compound 5, (Z)-N-[1-[[4-(4-bromophenyl)-4-hydroxy-1-piperidinyl]carbonyl]-2-phenylethenyl]-4-methoxybenzamide] | 7 | 13 | 49 | 7 | 195 to 197 | 2 | 1 | 80 | 11 | 48 | 13 | 9 | 18 | 13 | 60 to 80 |  |  |
| O=C(NC1CCCCC1)/C(=C/c1ccccc1)NC(=O)c1ccccc1 [Compound 40, (Z)-N-[1-[(cyclohexylamino)carbonyl]-2-phenylethenyl]benzamide] | 0 | 10 | 0 | 10 | 204 to 206 | 45 | 0 | 56 | 11 | 0 | 13 | 10 | 11 | 6 | 56 | < 25 | inhibition at 50 µg/mL (Physalospora piricola; [18]): < 20%; inhibition at 50 µg/mL (Botrytis cinerea; [19]): ≤ 20%; inhibition at 50 µg/mL (Rhizoctonia cerealis; [16]): < 20%; inhibition at 50 µg/mL (wheat Gibberella zeae; [22]): < 45%; inhibition at 50 µg/mL (Alternaria solani; read-out: Fungicidal activity (inhibition) against AS: Alternaria solani): < 30%; inhibition at 50 µg/mL (Cercospora arachidicola; [20]): < 25%; inhibition at 50 µg/mL (Pellicularia sasakii; [21]): < 30% |
| O=C(N/C(=C\c1ccco1)C(=O)N1CCC(O)(c2ccc(Br)cc2)CC1)C1CCCCC1 [Compound 63, (Z)-N-[1-[[4-(4-bromophenyl)-4-hydroxy-1-piperidinyl]carbonyl]-2-(2-furanyl)ethenyl]cyclohexanecarboxamide] | 18 | 35 | 50 | 21 | 121 to 123 | 9 | 36 | 44 | 57 | 53 | 29 | 24 | 21 | 14 |  |  |  |
| O=C(N/C(=C\c1c[nH]cn1)C(=O)N1CCC(O)(c2ccc(Br)cc2)CC1)c1ccccc1 [Compound 26, (Z)-N-[1-[[4-(4-bromophenyl)-4-hydroxy-1-piperidinyl]carbonyl]-2-(4-imidazole)ethenyl]benzamide] | 7 | 14 | 21 | 16 | 176 to 178 | 1 | 0 | 78 | 2 | 1 | 21 | 16 | 19 | 0 | 60 to 80 |  | inhibition at 50 µg/mL (wheat Gibberella zeae; [22]): 77% |
